The values that follow come from patent US10912767B2, “Anthracycline prodrugs and methods of making and using the same” (THE REGENTS OF THE UNIVERSITY OF COLORADO, priority 2015, dated 2021).

In assay [1] the test system is orthotopic MDA-MB-231 human breast tumor xenografts. Kind of assay: In vivo mouse efficacy, tumor bioluminescence. To be noted: 4 mg/kg dox equivalent iv + 18-FDG ip, weekly x6. On the set-up: species or system nude mice. As to the method:
For reconstitution for intravenous injection into mice, dry photodoxazolidine R═H (23 mg) was dissolved in 785 μL of DMSO for a final concentration of 34.5 mM, labeled “Drug Stock,” and stored dark at −20° C. Shortly before injection, the Drug Stock was thawed and 20-50 μL was transferred to a new tube. To this tube, 6 volumes (relative to the Drug Stock volume) of PEG-400 and 4 volumes of propylene glycol (PG) were added and the solution thoroughly mixed by vortexing. Immediately prior to injection, 9 volumes of saline (0.9% NaCl) was added to the DMSO/PEG/PG solution of photodoxazolidine and mixed by vortexing. […] Therefore, this formulation was used as prepared. This protocol produces a final formulation of 5% DMSO, 30% PEG-400, 20% PG, 45% saline. A standard injection of 100 μL of this formulation delivers 4 mg dox equivalent/kg body weight for a mouse weighing 0.025 kg.
Luciferase-positive MDA-MB-231 cells were maintained in MEM culture medium supplemented with 10% heat inactivated fetal bovine serum and 2% penicillin/streptomycin. Prior to injection, typsinized cell populations were counted with a Z1 Coulter Particle counter, centrifuged, and resuspended in Hank's Balanced Salt Solution (HBSS) at a concentration of 4.0×10^7 cells/mL. […] Body weight and tumor growth were measured regularly. Tumor growth was measured optically from the bioluminescence signal from injection of luciferin. […]

The test system of assay [2] is MDA-MB-231 breast cancer cells. Kind of assay: Tumor cell growth inhibition, crystal violet (Example 2). In kind it is cell-based, human. The note with it: for IC50: read-out: IC50. The text has this:
In order to investigate the photolysis of the drugs in a system amenable to cell culture use, a custom UV irradiation apparatus was constructed, consisting of 3 small blacklight fluorescent bulbs (Southern New England Ultraviolet Co., λmax=350 nm) set between two ring stands and suspended at a height of 11.5 cm. The bulbs' housing was reflective aluminum so as to direct as much UV irradiation as possible downward toward the plate. Upon installation in sterile cell culture hood, the power of the system was measured at approximately 6-7 mW using a Scientech laser power meter. Prior to experimentation, the hood and irradiation apparatus was sterilized with 254 nm germicidal UV irradiation overnight. Using this setup, 100 μM of 4,5-dimethoxy-2-nitrobenyl alcohol (DMNA), photodoxazolidine R═H, and glucose-PEG-photodoxazoldine were irradiated in individual wells of a 24-well plate. Initially, 50 μL of a DMSO stock was diluted with 950 μL of PBS and aliquots of 50 μL were removed at various times (0-180 min), mixing by pipetting each time. The timepoints were analyzed by HPLC (method 2) and plotted as fractional conversion versus time. […] Therefore, a second experiment was performed in which the PBS was replaced with 1:1 acetonitrile:water. With this system of 5% DMSO/47.5% acetonitrile/47.5% water, no visible precipitation was produced over the course of the reaction.
The ovarian carcinoma line NCl/ADR-RES (ADR) was grown in high-glucose Dulbecco's Modified Eagle Medium (DMEM) supplemented with 10% fetal bovine serum (FBS), 200 units/mL of penicillin and 200 μg/mL of streptomycin. The breast carcinoma line MDA-MB-231 was cultured in low-glucose DMEM with the same additives. Both lines were maintained in a humidified incubator with 5% CO2/95% air at 37° C. UV irradiations were performed with the apparatus described above.
Growth inhibition experiments were performed by seeding cells into 96-well plates or 24-well plates at densities of 1000-1500 cells per well or 8000 cells per well, respectively, and allowing the cells to adhere overnight. The media was then replaced with a range of aqueous concentrations of the drug in question and allowed to incubate at 37° C. with the cells for a span of time (Inc1) which ranged from 1 min to 48 hours. Irradiation was performed at room temperature with the plate's lid removed and ranged from 1 to 30 min. In some experiments, the drug solution was removed following Inc1 and irradiated in clean media or PBS. Following irradiation, the cells were placed back into the 37° C. incubator for a second period of incubation (Inc2), which varied between 1 min and 24 h, prior to replacement with fresh media. Plates which received no irradiation but identical treatment otherwise were done in parallel. The cells were then grown until the no-drug control wells reached approximately 80% confluence or 5 days, whichever was shorter. […] The cells were fixed with 5% formalin in PBS, stained with crystal violet, washed with tap water, and air-dried. The stain was resolubilized in 50% isopropyl alcohol, 50% H2O containing 2% (w/v) SDS. The staining density was read on a multiwell plate reader at 588-600 nm. Percentage cell density was calculated relative to the irradiated no-drug control wells, plotted as a function of drug concentration, and fit using non-linear least squared analysis with a variable-slope dose response model in GraphPad Prism 5.0 software.
Although the introduction of a long-pass glass filter between the light source and the plate alleviated this effect to a small extent, a maximum irradiation time of 10 min was settled upon. […] Since a media change at that point would remove the cells as well, the re-adherence of the cell population was accomplished by the addition of a large volume (200 μL) of complete media following Inc2, and overnight incubation. Then, a full media change was done to remove the drug. […]

In general, IC50 refers to the concentration that inhibits the measured activity by half.

The structures appear in SMILES notation. Like-named read-outs stand apart in the source and are kept apart here.

With `COc1cc(COC(=O)N2COC3C(C)OC(OC4CC(O)(C(=O)CO)Cc5c(O)c6c(c(O)c54)C(=O)c4c(OC)cccc4C6=O)CC32)c([N+](=O)[O-])cc1OC` (centres unmarked) [Photodoxazolidine], in assay [1], the tumor bioluminescence entry was “significant reductions in tumor bioluminescence”. The “fold drop of IC50 on near UV irradiation” value in assay [2] (MDA-MB-231, 10 min UV vs alone) is reported as “approximately 22 fold”. For the same compound, the IC50 in assay [2] (MDA-MB-231, +UV 10 min, near UV 350 nm) is 73 nM; in assay [2] (MDA-MB-231, prodrug alone, no UV, listed as Photodoxaz) it was 1600 ± 120 nM; in assay [2] (MDA-MB-231, prodrug alone, no UV, listed as photodoxazolidine) it was ~1600 nM.
